Assay results reported in US20120015925A1, “NOVEL BENZOTHIAZEPINE AND BENZOTHIEPINE COMPOUNDS” (ASAHI KASEI PHARMA CORPORATION, priority 2004, published 2012).

How the values were obtained:
ALANINE TRANSPORTER = assay: In vitro assay using Cos 7 cells for Na+ dependent amino acid transporter ([3H]-alanine uptake); assay type: cell-based; details: [3H]-alanine 8 μM, 37° C., 60 minutes, read-out: IC50 (μM) AGAINST ALANINE TRANSPORTER
Description: In the present Test Example, in vitro assays of the compounds using Cos 7 cells for various transporters were performed according to the description in JP-H10-505830 A.
That is, 2.5×10^5 cells/well of Cos 7 cells were seeded in a 24-well plate, and after two days, the cells were washed once with the assay buffer, i.e., Hanks buffer containing 25 mM glucose and 10 mM HEPES (pH 7.4). The assay buffer was then replaced with the assay buffer containing the test compound. [^3H]-alanine (brand name: NET-348, Daiich Pure chemical) or [^3H]-leucine (brand name: NET-460, Daiich Pure chemical) or [^3H]-phenylalanine (brand name: MT903, MORAVEK) or [^3H]-methionine (brand name: MT862, MORAVEK) or [^3H]-lysine (brand name: MT909, MORAVEK) or [^3H]-choline (brand name: TRK593, Amersham Biosciences) at a final concentration of 8 μM was added thereto and incubated at 37° C. for 60 minutes so that they were taken into Cos 7 cells. […] Then the radioactivity was measured using the liquid scintillation counter. The inhibitory rate (%) was calculated from the radioactivity in the control in which no test compound had been used and the radioactivity when the test compound at the certain concentration had been used, and the concentration of the compound which inhibited 50% of the transporter activity was calculated.

rats dosed bile acid = assay: Model for hepatic disorder associated with cholestasis, Protocol B (bile acid without partial ligation): AST, ALT, ALP; assay type: in vivo, rat; details: Table 13, Protocol B, 0.1 mg/kg oral twice per day for 3.5 days, N=8, mean±standard error
Description: In the present Test Example, a model for the hepatic disorder caused by partial ligation of the bile duct was employed with reference to Kanno's method (Liver, 43, Suppl(1):A126, 2002).
That is, to the SD (IGS) strain male rats at 7 to 10 weeks of age, the partial ligation of the bile duct was given with opening the abdominal cavity under anesthesia with pentobarbital. Before the operation, the blood was collected from femoral vein, in order to obtain the value before the administration. From the day after the operation, 200 mg/kg of bile acid and the test compound were orally administered forcibly twice per day for 3.5 days (Protocol A). Without giving the partial ligation of the bile duct, 200 mg/kg of bile acid and the test compound were also orally administered forcibly twice per day for 3.5 days (Protocol B). In both cases, the test compound was dissolved or suspended in distilled water or an aqueous solution of 1% HCO 60 (Nippon Chemicals). To the control group, saline was administered. As comparative examples, 25 mg/kg of cholestyramine (supplied from Sigma) or 50 mg/kg of ursodeoxycholic acid (supplied from Mitsubishi Pharma) was administered. For considering the effect of the operation, sham operation (sham group) was performed in some cases. The blood was collected from the abdominal aorta 6 hours after the drug administration on the final day of the experiment. AST (GOT), ALT (GPT) and ALP in the blood were measured using measurement kits (GOT II-HA Test Wako, GPT II-HA Test Wako and Alkaline Phosphor HA Test Wako, all were supplied from Wako Pure Chemical Industries) and using an automatic analyzer (Nitech ANALAYZER SUPER Z818).

[1] = biological target: T1, human IBAT transporter in which alanine at position 171 has been substituted with serine (Homo sapiens, UniProt Q12908); assay: In vitro assay using Cos 7 cells, human IBAT with alanine 171 substituted with serine; assay type: cell-based; details: 10 nM test compound
T1 sequence (Q12908 1-348): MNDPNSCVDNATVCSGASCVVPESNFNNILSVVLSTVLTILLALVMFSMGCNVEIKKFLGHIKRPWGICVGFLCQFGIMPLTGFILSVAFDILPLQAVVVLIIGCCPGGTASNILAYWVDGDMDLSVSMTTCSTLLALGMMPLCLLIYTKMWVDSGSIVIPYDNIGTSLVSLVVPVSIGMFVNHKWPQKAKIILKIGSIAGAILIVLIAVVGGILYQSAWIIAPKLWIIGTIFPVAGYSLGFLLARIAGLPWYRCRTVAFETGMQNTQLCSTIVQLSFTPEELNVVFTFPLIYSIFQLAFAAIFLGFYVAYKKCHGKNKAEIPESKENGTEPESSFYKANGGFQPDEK

[2] = test system: rats fed cholesterol food; assay: Model for hepatic disorder associated with cholestasis (hepatic cell apoptosis): mitotic cells in liver; assay type: in vivo, rat; details: oral twice per day, 4 days, total in 10 sites of 200 μm×200 μm, control group 50 ± 13
Description: In the present test example, a model for the hepatic disorder associated with cholestasis was employed with reference to apoptosis induction in hepatic cells in a hypercholesterolemia model described in Am. J. Physiol., 1995, 268, G613-G621.
That is, the food containing 0.4% cholesterol and 0.5% bile acid was given to SD (IGS) strain male rats at 7 to 9 weeks of age for 4 days, and the test compound was orally administered forcibly twice per day everyday from the starting date of cholesterol food feeding (each n=8). As a control, another group (n=8) were merely fed cholesterol food. The blood was exsanguinated from abdominal aorta 3 hours after the drug administration on the final day of the experiment. Then the liver was immediately removed and fixed in 10% neutral buffered formalin solution (brand name: FA-F96, supplied from Kokusan Chemical Co. Ltd.). After fixing, the sample was dehydrated and embedded using a closed type automatic embedding apparatus (brand name: ETP-180B, supplied from Sakura Finetek Japan). […] A total number of mitotic cells in different 10 sites in the range of 200 μm×200 μm on each section was counted.

CCCCC1(CCCC)CS(=O)(=O)c2ccc(N(C)C)cc2C(c2cccc(NC(=S)CCCCC[N+]34CCC(CC3)CC4)c2)N1.[Br-] (stereo not shown) [EXAMPLE 1, 1-{5-[3-(3,3-dibutyl-7-dimethylamino-1,1-dioxo-2,3,4,5-tetrahydro-1,4-benzothiazepine-5-yl)phenylthiocarbamoyl]pentyl}-1-azoniabicyclo[2.2.2]octane bromide]
IC50 (ALANINE TRANSPORTER): 33 µM | ALT (rats dosed bile acid; control group 82 ± 17): 53 ± 6 IU/L | AST (rats dosed bile acid; control group 157 ± 35): 100 ± 2 IU/L | ALP (rats dosed bile acid; control group 593 ± 77): 453 ± 50 IU/L | Cos 7 WITH HUMAN IBAT IN WHICH 171ST ALANINE IS SUBSTITUTED WITH SERINE INHIBITION (%) AT TEST COMPOUND CONCENTRATION OF 10 nM [1]: 53% | MITOTIC CELLS IN LIVER (AVERAGE ± STANDARD ERROR, n = 8) ([2]; 0.1 mg/kg per administration): 36 ± 13 | MITOTIC CELLS IN LIVER (AVERAGE ± STANDARD ERROR, n = 8) ([2]; 1 mg/kg per administration): 28 ± 7
